PubChem BioAssay (NCI)
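Growth conditions: 96-well plates. Treatment: test compound, 48 hours, 5 concentrations. Analysis: linear interpolation between bracketing concentrations; unreached endpoints set to highest concentration. At the TGI there is no net growth.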

Key:
Test in all cases: NCI-60 cell line screen, 48 h
[1] = test system: 786-0 renal
[2] = test system: A549 NSCLC
[3] = test system: ACHN renal
[4] = test system: CAKI-1 renal
[5] = test system: CCRF-CEM leukemia
[6] = test system: COLO 205 colon
[7] = test system: DLD-1 colon
[8] = test system: DMS 114 small cell lung
[9] = test system: DMS 273 small cell lung
[10] = test system: EKVX NSCLC
[11] = test system: HCC-2998 colon
[12] = test system: HCT-116 colon
[13] = test system: HCT-15 colon
[14] = test system: HL-60(TB) leukemia
[15] = test system: HOP-18 NSCLC
[16] = test system: HOP-62 NSCLC
[17] = test system: HOP-92 NSCLC
[18] = test system: HT29 colon
[19] = test system: IGROV1 ovarian
[20] = test system: K-562 leukemia
[21] = test system: KM12 colon
[22] = test system: KM20L2 colon
[23] = test system: LXFL 529 NSCLC
[24] = test system: M14 melanoma
[25] = test system: M19-MEL melanoma
[26] = test system: MALME-3M melanoma
[27] = test system: MOLT-4 leukemia
[28] = test system: NCI-H226 lung
[29] = test system: NCI-H23 lung
[30] = test system: NCI-H460 lung
[31] = test system: NCI-H522 lung
[32] = test system: OVCAR-3 ovarian
[33] = test system: OVCAR-4 ovarian
[34] = test system: OVCAR-5 ovarian
[35] = test system: OVCAR-8 ovarian
[36] = test system: RPMI-8226 leukemia
[37] = test system: RXF 393 renal
[38] = test system: RXF-631 renal
[39] = test system: SF-268 CNS
[40] = test system: SF-295 CNS
[41] = test system: SF-539 CNS
[42] = test system: SK-MEL-2 melanoma
[43] = test system: SK-MEL-28 melanoma
[44] = test system: SK-MEL-5 melanoma
[45] = test system: SK-OV-3 ovarian
[46] = test system: SN12C renal
[47] = test system: SNB-19 CNS
[48] = test system: SNB-75 CNS
[49] = test system: SNB-78 CNS
[50] = test system: SW-620 colon
[51] = test system: U251 CNS
[52] = test system: UACC-257 melanoma
[53] = test system: UACC-62 melanoma
[54] = test system: UO-31 renal
[55] = test system: A498 renal
[56] = test system: LOX IMVI melanoma
[57] = test system: TK-10 renal
[58] = test system: SR leukemia

Measured: TGI

CNCCCCN(C)/[N+]([O-])=N\O
not listed: [55] | [56] | [57] | [58]
> 100 µM: all other assays above

COc1c(C)c(O)c2c(=O)cc(-c3ccccc3)oc2c1C
not listed: [6] | [9] | [14] | [36] | [37] | [47] | [58]
> 100 µM: all other assays above

Cc1cc(=O)oc2cc(OCc3nc4ccccc4c(=O)n3-c3ccccc3)ccc12
97.7 µM: [47]
46.7 µM: [48]
96.4 µM: [17]
not listed: [49] | [52] | [54] | [58]
> 100 µM: all other assays above

O=C(CCc1n[nH]c(=S)o1)Nc1ccc(Cl)cc1Cl
29.9 µM: [50]
46.1 µM: [13]
44.4 µM: [36]
not listed: [37] | [42] | [56] | [58]
> 100 µM: all other assays above

CC(N)Cc1ccc(F)cc1 (stereo not given)
not listed: [25]
> 100 µM: all other assays above
